According to PubChem BioAssay AID2060340 (Molecular Pharmacology Branch, DTP, NCI, 2025):
Several values for one entry are separate records, joined by “and”; a condition that tells them apart may be missing. Identical values can stand only once.

System: 349418-098-R-PDC spheroids, viability, % test/control
Assay: Anticancer human tumor 349418-098-R-PDC patient-derived lung adenocarcinoma cell line growth inhibition [IpAb]
Conditions: spheroids with HUVEC and MSC; for viability, T/C: stronger effect = lower value
In short: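 Multi-cell spheroids of 60% tumour cells, 25% HUVEC and 15% MSC in ultra-low-attachment U-bottom wells, treated with agents combined with ipatasertib or abemaciclib. Half-log ranges top out near clinical Cmax, or 10 microM when Cmax is unknown.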

[1] = curve of first compound, second compound 0.1 µM
[2] = curve of first compound, second compound 0.316 µM
[3] = curve of first compound, second compound 1 µM
[4] = curve of first compound, second compound 3.16 µM
[5] = curve of first compound, second compound 10 µM
[6] = second compound 0.1 µM, first compound 0.0316 µM
[7] = second compound 0.1 µM, first compound 0.1 µM
[8] = second compound 0.316 µM, first compound 0.0316 µM
[9] = second compound 0.316 µM, first compound 0.1 µM
[10] = second compound 1 µM, first compound 0.0316 µM
[11] = second compound 1 µM, first compound 0.1 µM
[12] = second compound 3.16 µM, first compound 0.0316 µM
[13] = second compound 3.16 µM, first compound 0.1 µM
[14] = second compound 10 µM, first compound 0.0316 µM
[15] = second compound 10 µM, first compound 0.1 µM
[16] = second compound 0.1 µM, first compound 0.316 µM
[17] = second compound 0.1 µM, first compound 1 µM
[18] = second compound 0.1 µM, first compound 3.16 µM
[19] = second compound 0.1 µM, first compound 10 µM
[20] = second compound 0.316 µM, first compound 0.316 µM
[21] = second compound 0.316 µM, first compound 1 µM
[22] = second compound 0.316 µM, first compound 3.16 µM
[23] = second compound 0.316 µM, first compound 10 µM
[24] = second compound 1 µM, first compound 0.316 µM
[25] = second compound 1 µM, first compound 1 µM
[26] = second compound 1 µM, first compound 3.16 µM
[27] = second compound 1 µM, first compound 10 µM
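Note: spheroids exposed to compounds for 7 days.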

Q: `CC(C)n1nc(-c2ccc3oc(N)nc3c2)c2c(N)ncnc21` was tested. Which viability, T/C (compound 0.000316 µM) did it give?
A: 93.8% and 89.8%

Q: And the viability, T/C (compound 0.001 µM)?
A: 72.9% and 60.3%

Q: What about the viability, T/C (compound 0.00316 µM) of the same compound?
A: 24.7% and 26.2%

Q: And the viability, T/C (compound 0.01 µM)?
A: 11% and 10.4%

Q: What about the viability, T/C (compound 0.0316 µM) of the same compound?
A: 8.02% and 7.35%

Q: What about the viability, T/C (compound 0.1 µM) of the same compound?
A: 7.57% and 6.78%

Q: And the IC50 (curve of compound)?
A: 1.73 nM and 1.42 nM

Q: How did the viability, T/C (compound 0.00949 µM) turn out when `Cn1cnc2c(F)c(Nc3ccc(Br)cc3Cl)c(C(=O)NOCCO)cc21` was run?
A: 54.9% and 51.1%

Q: What about the viability, T/C (compound 0.03 µM) of the same compound?
A: 47.6% and 37.5%

Q: And the viability, T/C (compound 0.0949 µM)?
A: 49.2% and 43%

Q: What about the viability, T/C (compound 0.3 µM) of the same compound?
A: 58.2% and 42.2%

Q: And the viability, T/C (compound 0.949 µM)?
A: 37.5% and 27.2%

Q: What about the viability, T/C (compound 3 µM) of the same compound?
A: 12.6% and 11.1%

Q: With `Cn1ncnc1[C@H]1c2n[nH]c(=O)c3cc(F)cc(c23)N[C@@H]1c1ccc(F)cc1` + CC(C)NCC(C(=O)N1CCN(c2ncnc3c2C(C)CC3O)CC1)c1ccc(Cl)cc1 as the compound, how does the IC50 [1] read?
A: > 100 nM

Q: And the IC50 [2]?
A: 0.621 nM

Q: What about the IC50 [3] of the same compound?
A: < 0.316 nM

Q: And the IC50 [4]?
A: < 0.316 nM

Q: And the IC50 [5]?
A: < 0.316 nM

Q: And the viability, T/C (second compound 0.1 µM, first compound 0.000316 µM)?
A: 82.5%

Q: And the viability, T/C (second compound 0.1 µM, first compound 0.001 µM)?
A: 80.5%

Q: And the viability, T/C (second compound 0.1 µM, first compound 0.00316 µM)?
A: 77.3%

Q: And the viability, T/C (second compound 0.1 µM, first compound 0.01 µM)?
A: 70%

Q: What about the viability, T/C [6] of the same compound?
A: 68.7%

Q: And the viability, T/C [7]?
A: 76.7%

Q: And the viability, T/C (second compound 0.316 µM, first compound 0.000316 µM)?
A: 52.6%

Q: And the viability, T/C (second compound 0.316 µM, first compound 0.001 µM)?
A: 48.4%

Q: And the viability, T/C (second compound 0.316 µM, first compound 0.00316 µM)?
A: 42.8%

Q: What about the viability, T/C (second compound 0.316 µM, first compound 0.01 µM) of the same compound?
A: 46.8%

Q: And the viability, T/C [8]?
A: 41.7%

Q: And the viability, T/C [9]?
A: 37%

Q: And the viability, T/C (second compound 1 µM, first compound 0.000316 µM)?
A: 26.4%

Q: And the viability, T/C (second compound 1 µM, first compound 0.001 µM)?
A: 24.1%

Q: What about the viability, T/C (second compound 1 µM, first compound 0.00316 µM) of the same compound?
A: 18.9%

Q: What about the viability, T/C (second compound 1 µM, first compound 0.01 µM) of the same compound?
A: 16.7%

Q: And the viability, T/C [10]?
A: 17.2%

Q: What about the viability, T/C [11] of the same compound?
A: 17.1%

Q: What about the viability, T/C (second compound 3.16 µM, first compound 0.000316 µM) of the same compound?
A: 13.8%

Q: What about the viability, T/C (second compound 3.16 µM, first compound 0.001 µM) of the same compound?
A: 15.8%

Q: What about the viability, T/C (second compound 3.16 µM, first compound 0.00316 µM) of the same compound?
A: 11.1%

Q: What about the viability, T/C (second compound 3.16 µM, first compound 0.01 µM) of the same compound?
A: 10.2%

Q: What about the viability, T/C [12] of the same compound?
A: 9.16%

Q: And the viability, T/C [13]?
A: 7.75%

Q: What about the viability, T/C (second compound 10 µM, first compound 0.000316 µM) of the same compound?
A: 9.03%

Q: What about the viability, T/C (second compound 10 µM, first compound 0.001 µM) of the same compound?
A: 7.63%

Q: What about the viability, T/C (second compound 10 µM, first compound 0.00316 µM) of the same compound?
A: 6.62%

Q: What about the viability, T/C (second compound 10 µM, first compound 0.01 µM) of the same compound?
A: 6.38%

Q: What about the viability, T/C [14] of the same compound?
A: 5.72%

Q: And the viability, T/C [15]?
A: 6.34%

Q: Which viability, T/C (compound 0.01 µM) does the source give for `CCN1CCN(Cc2ccc(Nc3ncc(F)c(-c4cc(F)c5nc(C)n(C(C)C)c5c4)n3)nc2)CC1` here?
A: 74.5% [middle of 13 runs]

Q: And the viability, T/C (compound 0.0316 µM)?
A: 44.2% [middle of 13 runs]

Q: What about the viability, T/C (compound 0.1 µM) of the same compound?
A: 26.4% [middle of 13 runs]

Q: What about the viability, T/C (compound 0.316 µM) of the same compound?
A: 19.7% [middle of 12 runs]

Q: What about the viability, T/C (compound 1 µM) of the same compound?
A: 15.5% [middle of 13 runs]

Q: What about the IC50 (compound alone, run of 05/18/2021) of the same compound?
A: 28.5 nM [middle of 12 runs]

Q: `CC1(C)CCC(CN2CCN(c3ccc(C(=O)NS(=O)(=O)c4ccc(NCC5CCOCC5)c([N+](=O)[O-])c4)c(Oc4cnc5[nH]ccc5c4)c3)CC2)=C(c2ccc(Cl)cc2)C1` + CCN1CCN(Cc2ccc(Nc3ncc(F)c(-c4cc(F)c5nc(C)n(C(C)C)c5c4)n3)nc2)CC1 was tested. Which IC50 (curve of first compound, second compound 0.01 µM) did it give?
A: 1810 nM

Q: And the IC50 (curve of first compound, second compound 0.0316 µM)?
A: 1640 nM

Q: And the IC50 [1]?
A: < 31.6 nM

Q: What about the IC50 [2] of the same compound?
A: < 31.6 nM

Q: What about the IC50 [3] of the same compound?
A: < 31.6 nM

Q: And the viability, T/C (second compound 0.01 µM, first compound 0.0316 µM)?
A: 102%

Q: What about the viability, T/C (second compound 0.01 µM, first compound 0.1 µM) of the same compound?
A: 75%

Q: What about the viability, T/C (second compound 0.01 µM, first compound 0.316 µM) of the same compound?
A: 68.5%

Q: And the viability, T/C (second compound 0.01 µM, first compound 1 µM)?
A: 67.8%

Q: And the viability, T/C (second compound 0.01 µM, first compound 3.16 µM)?
A: 42.9%

Q: And the viability, T/C (second compound 0.01 µM, first compound 10 µM)?
A: 6.47%

Q: And the viability, T/C (second compound 0.0316 µM, first compound 0.0316 µM)?
A: 60.8%

Q: And the viability, T/C (second compound 0.0316 µM, first compound 0.1 µM)?
A: 56.1%

Q: What about the viability, T/C (second compound 0.0316 µM, first compound 0.316 µM) of the same compound?
A: 52.5%

Q: What about the viability, T/C (second compound 0.0316 µM, first compound 1 µM) of the same compound?
A: 55.4%

Q: And the viability, T/C (second compound 0.0316 µM, first compound 3.16 µM)?
A: 44.1%

Q: What about the viability, T/C (second compound 0.0316 µM, first compound 10 µM) of the same compound?
A: 6.96%

Q: And the viability, T/C [6]?
A: 29.8%

Q: And the viability, T/C [7]?
A: 32.8%

Q: And the viability, T/C [16]?
A: 29%

Q: What about the viability, T/C [17] of the same compound?
A: 26.3%

Q: What about the viability, T/C [18] of the same compound?
A: 24.2%

Q: And the viability, T/C [19]?
A: 6.59%

Q: And the viability, T/C [8]?
A: 20.6%

Q: And the viability, T/C [9]?
A: 19.6%

Q: What about the viability, T/C [20] of the same compound?
A: 21.5%

Q: What about the viability, T/C [21] of the same compound?
A: 18.6%

Q: And the viability, T/C [22]?
A: 20.6%

Q: What about the viability, T/C [23] of the same compound?
A: 4.86%

Q: And the viability, T/C [10]?
A: 16.7%

Q: And the viability, T/C [11]?
A: 18.6%

Q: And the viability, T/C [24]?
A: 16%

Q: And the viability, T/C [25]?
A: 17.9%

Q: And the viability, T/C [26]?
A: 17%

Q: What about the viability, T/C [27] of the same compound?
A: 4.09%

Q: Which results are given for `Cn1ncc(Cl)c1-c1cc(C(=O)NC(CN)Cc2cccc(F)c2)sc1Cl` (centres undefined) + CC(C)NCC(C(=O)N1CCN(c2ncnc3c2C(C)CC3O)CC1)c1ccc(Cl)cc1?
A: IC50 [1]: 90.8 nM; IC50 [2]: < 31.6 nM; IC50 [3]: < 31.6 nM; IC50 [4]: < 31.6 nM; IC50 [5]: < 31.6 nM; viability, T/C [6]: 79.5%; viability, T/C [7]: 45.1%; viability, T/C [16]: 29.4%; viability, T/C [17]: 12.3%; viability, T/C [18]: 6.88%; viability, T/C [19]: 0.08%; viability, T/C [8]: 49.7%; viability, T/C [9]: 31.8%; viability, T/C [20]: 25.3%; viability, T/C [21]: 12.1%; viability, T/C [22]: 7.48%; viability, T/C [23]: 0.08%; viability, T/C [10]: 23.2%; viability, T/C [11]: 22.2%; viability, T/C [24]: 15.9%; viability, T/C [25]: 10.1%; viability, T/C [26]: 6.54%; viability, T/C [27]: 0.08%; viability, T/C [12]: 15.3%; viability, T/C [13]: 12.2%; viability, T/C (second compound 3.16 µM, first compound 0.316 µM): 10.8%; viability, T/C (second compound 3.16 µM, first compound 1 µM): 8.53%; viability, T/C (second compound 3.16 µM, first compound 3.16 µM): 6.62%; viability, T/C (second compound 3.16 µM, first compound 10 µM): 0.19%; viability, T/C [14]: 7.77%; viability, T/C [15]: 8.14%; viability, T/C (second compound 10 µM, first compound 0.316 µM): 7.56%; viability, T/C (second compound 10 µM, first compound 1 µM): 6.63%; viability, T/C (second compound 10 µM, first compound 3.16 µM): 5.87%; viability, T/C (second compound 10 µM, first compound 10 µM): 0.18%
